Data as given in article PMC11271627, “Molecular dynamics-guided optimization of BGM0504 enhances dual-target agonism for combating diabetes and obesity” (Scientific Reports, 2024).

What was measured:
Human GIPR = target: T1, Human GIPR (Homo sapiens, UniProt P48546); test: cAMP accumulation assay, GIPR; type: cell-based; conditions: CHO
T1 construct: expressed in transfected cells; host or cells: CHO cells
T1 sequence (P48546 22-466): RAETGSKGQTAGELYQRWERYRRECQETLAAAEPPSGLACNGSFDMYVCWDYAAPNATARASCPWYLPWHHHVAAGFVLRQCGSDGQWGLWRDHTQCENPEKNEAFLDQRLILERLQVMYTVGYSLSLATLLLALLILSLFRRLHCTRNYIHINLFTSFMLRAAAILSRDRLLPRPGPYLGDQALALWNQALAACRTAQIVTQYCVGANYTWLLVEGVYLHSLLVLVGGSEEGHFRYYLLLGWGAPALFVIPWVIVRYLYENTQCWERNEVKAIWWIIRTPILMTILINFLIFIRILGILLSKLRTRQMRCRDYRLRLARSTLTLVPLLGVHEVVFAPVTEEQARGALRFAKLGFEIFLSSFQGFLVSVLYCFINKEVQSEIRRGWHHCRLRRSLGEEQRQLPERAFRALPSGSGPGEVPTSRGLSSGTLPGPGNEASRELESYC
Protocol: (§1) These cells were then resuspended in 5 mL of the assay buffer, and their concentration was determined using a Vi-Cell Counter. […] Samples were subsequently added to the assay plate along with ECHO555. […] A volume of 10 µL of the cell suspension was added to the assay plate, with a density of 1000 cells/well for GLP-1R testing and 2000 cells/well for GIPR testing. The assay plate was then incubated in a 23°C incubator for 30 minutes. A starting concentration of 800 nM was used to prepare the cAMP standard curve, followed by a 4-fold 10-point serial dilution. These serially diluted cAMP standards were added to the assay plate at a volume of 10 µL/well. Subsequently, 10 µL of the cAMP detection solution was added to the assay plate, and the plate was incubated at room temperature for 1 hour, shielded from direct light. […] For data analysis, each data point’s cAMP level (nM) was calculated using the established cAMP standard curve. The percentage activity for each data point was determined using the formula: % Activity = (cAMP level of testing sample - average cAMP level of low control) / ([…] cAMP level of high control - average cAMP level of […] control) × 100%. Additionally, the ‘log(agonist) vs. response – variable slope’ model in GraphPad Prism 5.0 was used to fit the dose-response curve of each sample and calculate the EC50 value.

Human GLP-1R = target: T2, Human GLP-1R (Homo sapiens, UniProt P43220); test: cAMP accumulation assay, GLP-1R; type: cell-based; conditions: HEK293 cells; relative to 10 nM GLP-1(7–37) high control; arithmetic mean ± SEM
T2 construct: expressed in transfected cells; host or cells: HEK293 cells
T2 sequence (P43220 24-463): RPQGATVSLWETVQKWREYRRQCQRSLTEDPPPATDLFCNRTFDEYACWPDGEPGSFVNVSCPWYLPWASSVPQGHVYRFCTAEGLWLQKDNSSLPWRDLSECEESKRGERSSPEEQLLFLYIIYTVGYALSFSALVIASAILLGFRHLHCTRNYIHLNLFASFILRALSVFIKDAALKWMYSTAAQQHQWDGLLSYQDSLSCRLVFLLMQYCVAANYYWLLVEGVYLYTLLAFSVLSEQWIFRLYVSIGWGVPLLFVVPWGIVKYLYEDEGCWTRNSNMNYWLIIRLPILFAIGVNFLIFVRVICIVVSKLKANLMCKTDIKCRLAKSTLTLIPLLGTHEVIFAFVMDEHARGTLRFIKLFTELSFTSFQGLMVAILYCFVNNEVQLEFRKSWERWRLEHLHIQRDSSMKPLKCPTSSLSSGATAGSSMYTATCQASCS
Protocol: as §1

[1] = target: T3, Human Serum Albumin (HSA) protein (Homo sapiens, UniProt P02768); test: biochemical; type: binding
T3 construct: purified Human ALB (25–609)-His was immobilized
T3 sequence (P02768 25-609): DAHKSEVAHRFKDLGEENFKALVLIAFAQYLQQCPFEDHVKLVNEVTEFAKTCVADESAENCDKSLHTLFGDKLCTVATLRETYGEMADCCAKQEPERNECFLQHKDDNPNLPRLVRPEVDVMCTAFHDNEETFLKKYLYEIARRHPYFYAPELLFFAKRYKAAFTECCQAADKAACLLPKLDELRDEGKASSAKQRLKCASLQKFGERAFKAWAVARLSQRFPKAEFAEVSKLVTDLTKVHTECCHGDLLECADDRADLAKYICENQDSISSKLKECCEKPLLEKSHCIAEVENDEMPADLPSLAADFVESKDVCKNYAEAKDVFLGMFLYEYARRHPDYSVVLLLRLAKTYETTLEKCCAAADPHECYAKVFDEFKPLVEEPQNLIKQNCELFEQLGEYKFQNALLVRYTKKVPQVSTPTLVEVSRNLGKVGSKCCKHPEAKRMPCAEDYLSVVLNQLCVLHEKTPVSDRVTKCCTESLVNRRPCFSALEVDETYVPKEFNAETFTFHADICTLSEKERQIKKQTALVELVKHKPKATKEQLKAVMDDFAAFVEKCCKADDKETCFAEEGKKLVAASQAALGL
Source text: The buffer used was PBST (PBS with 0.02% Tween 20).

| Structure (SMILES) | Emax (Human GIPR) [%] | Emax (Human GLP-1R) [%] | Kd [1] [nM] |
| --- | --- | --- | --- |
| CC[C@H](C)[C@H](NC(=O)[C@H](CC(C)C)NC(=O)[C@H](Cc1c[nH]c2ccccc12)NC(=O)[C@H](CCC(N)=O)NC(=O)[C@@H](NC(=O)[C@H](Cc1ccccc1)NC(=O)[C@H](C)NC(=O)[C@H](CCCCN)NC(=O)[C@H](CCC(N)=O)NC(=O)[C@H](C)NC(=O)[C@@H](NC(=O)[C@H](CCCCN)NC(=O)[C@H](CC(=O)O)NC(=O)[C@H](CC(C)C)NC(=O)C(C)(C)NC(=O)[C@@H](NC(=O)[C@H](CO)NC(=O)[C@H](Cc1ccc(O)cc1)NC(=O)[C@H](CC(=O)O)NC(=O)[C@H](CO)NC(=O)[C@@H](NC(=O)[C@H](Cc1ccccc1)NC(=O)[C@@H](NC(=O)CNC(=O)[C@H](CCC(=O)O)NC(=O)C(C)(C)NC(=O)[C@@H](N)Cc1ccc(O)cc1)[C@@H](C)O)[C@@H](C)O)[C@@H](C)CC)[C@@H](C)CC)C(C)C)C(=O)N[C@@H](C)C(=O)NCC(=O)NCC(=O)N1CCC[C@H]1C(=O)N[C@@H](CO)C(=O)N[C@@H](CO)C(=O)NCC(=O)N[C@@H](C)C(=O)N1CCC[C@H]1C(=O)N1CCC[C@H]1C(=O)N1CCC[C@H]1C(=O)N[C@@H](CO)C(N)=O [Non-acylated Tirzepatide, reference compound] | 92.2 ± 1.7 | 96.1 ± 10.8 | – |
| CC[C@H](C)[C@H](NC(=O)[C@H](CC(C)C)NC(=O)[C@H](Cc1c[nH]c2ccccc12)NC(=O)[C@H](CCC(N)=O)NC(=O)[C@@H](NC(=O)[C@H](Cc1ccccc1)NC(=O)[C@H](C)NC(=O)[C@H](CCCCNC(=O)COCCOCCNC(=O)COCCOCCNC(=O)CC[C@H](NC(=O)CCCCCCCCCCCCCCCCCCC(=O)O)C(=O)O)NC(=O)[C@H](CCC(N)=O)NC(=O)[C@H](C)NC(=O)[C@@H](NC(=O)[C@H](CCCCN)NC(=O)[C@H](CC(=O)O)NC(=O)[C@H](CC(C)C)NC(=O)C(C)(C)NC(=O)[C@@H](NC(=O)[C@H](CO)NC(=O)[C@H](Cc1ccc(O)cc1)NC(=O)[C@H](CC(=O)O)NC(=O)[C@H](CO)NC(=O)[C@@H](NC(=O)[C@H](Cc1ccccc1)NC(=O)[C@@H](NC(=O)CNC(=O)[C@H](CCC(=O)O)NC(=O)C(C)(C)NC(=O)[C@@H](N)Cc1ccc(O)cc1)[C@@H](C)O)[C@@H](C)O)[C@@H](C)CC)[C@@H](C)CC)C(C)C)C(=O)N[C@@H](C)C(=O)NCC(=O)NCC(=O)N1CCC[C@H]1C(=O)N[C@@H](CO)C(=O)N[C@@H](CO)C(=O)NCC(=O)N[C@@H](C)C(=O)N1CCC[C@H]1C(=O)N1CCC[C@H]1C(=O)N1CCC[C@H]1C(=O)N[C@@H](CO)C(N)=O [Tirzepatide, reference compound] | 87.1 ± 7.6 | 84.1 ± 5 | 86.3 |
